Experimental findings from US20250368618A1, “BENZOHETEROCYCLIC SUBSTITUTED TETRAHYDROISOQUINOLINE COMPOUND SALT FORM AND PREPARATION METHOD THEREFOR” (SHANGHAI JEYOU PHARMACEUTICAL CO., LTD., priority 2022, published 2025) are described below.

SMILES strings stand for the structures.

Data set [1] relates to Sprague-Dawley rats. In words: Inhibition of phosphate and sodium absorption in intestinal tract of rats after single administration (urinary phosphorus, urinary sodium, fecal form). The class given is in vivo, rat. As to conditions: normal rats. As for the experimental part: The compound represented by formula (I) was evaluated by measuring the concentrations of urinary phosphorus and urinary sodium, as well as fecal form.
(§1) Six-week-old Sprague-Dawley rats were purchased from Beijing Vital River Laboratory Animal Technology Co., Ltd. Two rats in each cage were placed in the SPF-grade animal room, and the rats were acclimatized for about one week. Throughout the study, the animals were given ad libitum access to feed and water, and the light cycle was 12 h of light and 12 h of darkness. Animal groups: vehicle group, n=5; tenapanor 0.3 mg/kg group, n=5; compound represented by formula (I) 0.03 mg/kg group, n=5; compound represented by formula (I) 0.1 mg/kg group, n=5; compound represented by formula (I) 0.3 mg/kg group, n=5; and compound represented by formula (I) 1.0 mg/kg group, n=5.
On the day of the experiment, the test compound or vehicle (0.5% Tween 80+99.5% distilled water) was administered intragastrically to the animals after 8 h of fasting. Then, the animals were transferred into metabolism cages for single-cage feeding, and the feed was restored. Sixteen hours after administration, urine samples were collected, food consumption was recorded, and fecal form in the collection funnel was evaluated by two independent observations. Fecal form scoring criteria: 1. normal pellets; 2. slightly soft feces (pellets adhered to the side wall of the collector due to moisture); 3. soft feces (loss of normal shape of the pellets); 4. loose and amorphous (complete loss of shape, accompanied by a blot pattern); and 5. diarrhea (watery feces). Fecal form score (FFS) in rats was determined by averaging two independent observation scores for all rats in the same group (n=5); and the mean value for the vehicle group was 1.
The urine was centrifuged at 4° C. at 3220 g for 5 min, and the urinary phosphorus concentration (phosphomolybdic acid ultraviolet endpoint colorimetric method) and urinary sodium concentration (ion selective electrode method) were measured.
(§2) The results were expressed as mean±standard error (Means±SEM). The urinary phosphorus excretion amount (or urinary sodium excretion amount) in the rats was normalized and corrected against the respective dietary phosphorus (or sodium) intake. The formula was as follows: normalized correction value of urinary phosphorus excretion amount (expressed as nP)=urinary phosphorus excretion amount+dietary phosphorus intake; normalized correction value of urinary sodium excretion amount (expressed as nNa)=urinary sodium excretion amount+dietary sodium intake; one-way analysis of variance was adopted; and fecal form score was verified by the non-parametric test. *, p<0.05; **, p<0.01; ***, p<0.001; ****, p<0.0001.

Data set [2] concerns Sprague-Dawley rats. In words: Effect of multiple administrations on serum phosphorus concentration in rats (serum phosphorus, 24-h urinary phosphorus and sodium, fecal form). The class given is in vivo, rat. As to conditions: for 24-h nP, course: after 15 days; for serum phosphorus concentration: intragastric twice a day. As for the experimental part:
as §1, with “The compound represented by formula (I) was evaluated by measuring the serum phosphorus concentration, concentrations of urinary phosphorus and urinary sodium, and fecal form in rats. Six-week-old” for “Six-week-old”, “Tenapanor 0.05 mg/kg,” for “tenapanor 0.3 mg/kg group,”, “0.01 mg/kg,” for “0.03 mg/kg group,”, “0.05 mg/kg,” for “0.1 mg/kg group,”, “0.5 mg/kg,” for “0.3 mg/kg group,”, “mg/kg,” for “mg/kg group,”
After the start of the experiment, the feeding rhythm of the rats was adjusted to diurnal feeding in a manner of overnight fasting for 16 h and restoring feed for 8 h during the day. After the start of administration, the test compound or vehicle (0.5% Tween 80+99.5% distilled water) was administered intragastrically twice a day during the feeding period, with an interval of 4 h, for 14 consecutive days. The body weight of animals and food consumption were measured daily. The serum phosphorus concentration (including baseline values before the administration), 24-hour urinary phosphorus excretion amount, and 24-hour urinary sodium excretion amount were measured 1-2 times a week, and fecal form in the collection funnel was scored (fecal form was assessed by two independent observations). Fecal form scoring criteria: 1. normal pellets; 2. slightly soft feces (pellets adhered to the side wall of the collector due to moisture); 3. soft feces (loss of normal shape of the pellets); 4. loose and amorphous (complete loss of shape, accompanied by a blot pattern); and 5. diarrhea (watery feces). Fecal form score (FFS) in rats was determined by averaging two independent observation scores for all rats in the same group (n=5); and the mean value for the vehicle group was 1.
After being left to stand at room temperature for 2 h, the blood was centrifuged at 4° C. at 4500 g for 10 min; the urine was centrifuged at 4° C. at 3220 g for 5 min; and the serum phosphorus concentration and urinary phosphorus concentration (phosphomolybdic acid ultraviolet endpoint colorimetric method), as well as urinary sodium concentration (indirect ion electrode method) were measured.
as §2, with “error (Means±SEM), n=5 animals/group.” for “error (Means±SEM).”, “intake; two-way” for “intake; one-way”, “p<0.05; **” for “p<0.05; **,”, “p<0.01; ***” for “p<0.01; ***,”

With `CN1Cc2c(Cl)cc(Cl)cc2[C@H](c2ccc3cn(CCOCCOCCNC(=O)NCCCCNC(=O)NCCOCCOCCn4cc5ccc([C@@H]6CN(C)Cc7c(Cl)cc(Cl)cc76)cc5n4)nc3c2)C1` [compound represented by formula (I)], the “urinary phosphorus excretion amount (nP)” value in data set [1] (single intragastric administration, 0.03, 0.1, 0.3, 1.0 mg/kg, urine 16 h after administration, dose dependence) is “dose-effect relationship”; in data set [1] (single intragastric administration, doses of 0.3 mg/kg and 1.0 mg/kg, urine 16 h after administration), “significantly reduce”. Also, the “water content in the feces (fecal form score)” value in data set [1] (single intragastric administration, 0.03-1.0 mg/kg, 16 h) is reported as “tendency to increase with the increase in the dose”. Further, the “urinary phosphorus excretion amount (nP), comparison with Tenapanor” value in data set [1] (single intragastric administration, same dose 0.3 mg/kg of both) was “better than Tenapanor”. Moreover, in data set [1] (single intragastric administration, urine 16 h after administration), the “urinary sodium excretion amount (nNa)” value is “significantly reduce”. For the same compound, the “24-h nP” value is listed as “significantly reduced” in data set [2] (after 1 day of treatment, 1.0 mg/kg, vs vehicle); “significantly reduced” in data set [2] (after 10 days of treatment, 0.01, 0.05, 0.5 and 1.0 mg/kg, vs vehicle). Moreover, the “24-h nP (urinary phosphorus excretion amount normalized to dietary phosphorus intake)” value in data set [2] (after 1 day of treatment, 0.01, 0.05, 0.5 and 1.0 mg/kg, vs vehicle) is “decreasing trend”. Besides, the “24-h nNa (urinary sodium excretion amount normalized to dietary sodium intake)” value in data set [2] (after 1 day of treatment, 0.01, 0.05, 0.5 and 1.0 mg/kg, vs vehicle control) is “significantly reduced”. Besides, the “24-h nP, dose dependence” value in data set [2] (after 1 day of treatment, 0.01-1.0 mg/kg) was “The higher the dose, the lower the nP”. Besides, the fecal form score entry in data set [2] (after 1 day of treatment, 0.05, 0.5 and 1.0 mg/kg, vs vehicle control) is given as “increased significantly”. In data set [2] (after 10 days of treatment, 0.01 mg/kg and 0.05 mg/kg), the “24-h nNa, course” value is listed as “rising trend”. The “24-h nP, course” value is recorded as “tended to be stable” in data set [2] and “rising trend” in data set [2] (low-dose group 0.01 mg/kg). The “loose feces, severity” value in data set [2] (high-dose groups 0.5 mg/kg and 1.0 mg/kg) was “more severe loose feces”. The “frequency of loose feces observed” value in data set [2] (high-dose groups 0.5 mg/kg and 1.0 mg/kg, as the administration continued) was “decreased”. For the same compound, the serum phosphorus concentration result in data set [2] (after 4 days of treatment, 0.5 mg/kg or 1.0 mg/kg, vs vehicle control) was “significantly reduced”; in data set [2] (after 10 days of treatment, 0.01, 0.05, 0.5 and 1.0 mg/kg, vs vehicle control), “significantly reduced”. The “loose feces, occurrence” value in data set [2] (low dose 0.01 mg/kg) is reported as “No rats had loose feces”. In data set [2] (twice a day, after 10 days, groups other than the highest dose 1.0 mg/kg), the “serum phosphorus concentration, course” value is “tended to be stable”.
